In US5314884A, “2-pyrimidinyl-1-piperazine derivatives processes for their preparation and medicaments containing them” (Troponwerke GmbH & Co., priority 1983, dated 1994):
Structures can show the parent of a compound that is named as a salt.

How the values were obtained:
[1] = target: T1, serotonin receptors from calf hippocampus (Bos taurus, UniProt F6Q2H9); assay: Serotonin receptor binding (3H-serotonin displacement); conditions: read-out: Ki (concentration at which 50% of the 3H-serotonin employed is displaced)
T1 construct: serotonin receptors from calf hippocampus; from tissue; host or cells: calf hippocampus
T1 sequence (F6Q2H9 1-422): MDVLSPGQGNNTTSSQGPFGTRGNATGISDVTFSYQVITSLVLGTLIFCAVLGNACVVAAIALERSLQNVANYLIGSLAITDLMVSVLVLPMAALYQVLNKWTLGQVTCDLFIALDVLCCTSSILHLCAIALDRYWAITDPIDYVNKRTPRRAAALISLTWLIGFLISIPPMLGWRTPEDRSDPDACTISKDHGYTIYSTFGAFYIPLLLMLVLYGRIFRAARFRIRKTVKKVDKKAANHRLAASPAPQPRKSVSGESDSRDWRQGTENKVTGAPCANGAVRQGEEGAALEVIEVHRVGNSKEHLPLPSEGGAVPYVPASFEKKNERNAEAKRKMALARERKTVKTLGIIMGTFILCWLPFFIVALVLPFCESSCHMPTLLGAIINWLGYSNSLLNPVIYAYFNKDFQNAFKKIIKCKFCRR
From the text: The direct or indirect effect on the serotonergic system by, for example, anxiolytic, tranquillising, neuroleptic or antidepressant active compounds is known. Substances according to the invention interact specifically with serotonin receptors from calf hippocampus. The concentration at which 50% of the ^3 H-serotonin employed is displaced is reported (Ki values). Lit.: Peroutka, S. J. and S. H. Snyder, Molec. Pharmacol. 16, 687, 1979.

[2] = system: Passive avoidance behaviour; assay: Passive avoidance behaviour; format: in vivo; conditions: Rattus norvegicus, ip; rats; i.p.; electric shock, time to re-entry of darkened box; read-out: ED50 (text: minimum effective dose (MED))
From the text: After entering a darkened box, rats receive an electric shock and thus avoid reentering the box. Rats under the influence of anxiolytics enter the box in spite of having experience the shock. The time up to entry into the box is timed with a stopwatch. The minimum effective dose (MED) in mg/kg is reported.

[3] = system: ptosis induced by tetrabenazine; assay: Tetrabenazine antagonism; format: in vivo; conditions: Mus musculus, ip; mice; i.p.; tetrabenazine 20 mg/kg i.p.; read-out: ED50 (dose at which tetrabenazine-induced ptosis is reduced to 50%)
Procedure: Antidepressants antagonise the ptosis induced by tetrabenazine in mice. The ED50 value indicates the dose at which the ptosis induced by tetrabenazine (20 mg/kg i.p.) is reduced to 50%. Lit.: J. L. Howard et al., in: Antidepressants; Neuochemical, Behavioral and Clinical Perspectives, edited by S. J. Enna et al., Raven Press, New York, pages 117-120, 1981.

[4] = system: amphetamine-induced stereotypic behaviour; assay: Amphetamine potentiation; format: in vivo; conditions: ip; rat; i.p.; 2 mg/kg DL-amphetamine sulphate i.v.; read-out: ED50 (dose at which amphetamine-induced behaviour is potentiated by 50%)
Procedure: Substances having antidepressant effects potentiate the amphetamine-inducedstereotypic behaviour of the rat. The ED50 value which is given is the dose at which the behaviour induced after i.v. administration of 2 mg/kg DL-amphetamine sulphate is potentiated by 50%. Lit.: J. L. Howard et al., in: Antidepressants: Neurochemical, Behavioral and Clinical Perspectives, edited by S. J. Enna et al., Raven Press, New York, Pages 107-120, 1981.

[5] = system: shock-induced aggressive behaviour; assay: Tedeschi test; format: in vivo; conditions: Mus musculus, ip; mice; i.p.; shock-induced aggression; read-out: ED50 (dose at which aggressive behaviour is reduced by 50%)
From the text: In mice, anxiolytics bring about a reduction in the shock-induced aggressive behaviour. The ED50 value indicates the dose at which the aggressive behaviour is reduced by 50% within the period of the experiment.
Lit.: Tedeschi et all, J. Pharmacol. Exp. Ther. 129, 28-34, 1954.

immobility = assay: Behavioral Despair; format: in vivo; conditions: Rattus norvegicus, ip; rats; i.p.; glass cylinder filled with water; read-out: ED50 (dose at which immobility is reduced by 50%)
From the text: When placed in a glass cylinder filled with water, rats initially show vigorous swimming movements which alternate with phases of immobility which increase in length. Many antidepressants of a variety of chemical structures shorten the duration of this immobility. The ED50 value indicates the dose of a test substance at which the immobility during the period of the experiment is reduced by 50%.
Lit.: R. D. Porsolt et al., Europ. J. Pharmacol. 47, 379-391, 1978.

IC50 [1]	Structure (SMILES)	ED50 [4]	ED50 [5]	also measured
20 nM	O=C1c2ccc([N+](=O)[O-])cc2S(=O)(=O)N1CCCCN1CCN(c2ncccn2)CC1 [Example 24, 2-(4-(4-(2-Pyrimidinyl)-1-piperazinyl)butyl)-6-nitro-1,2-benzisothiazol-3(2H)one 1,1-dioxide]	–	–	–
30 nM	O=C1c2ccc(Cl)cc2S(=O)(=O)N1CCCCN1CCN(c2ncccn2)CC1 [Example 11, 2-(4-(4-(2-Pyrimidinyl)-1-piperazinyl)butyl)-6-chloro-1,2-benzisothiazol-3(2H)one 1,1-dioxide]	–	–	minimal effective dose [2]: 1 mg/kg
–	c1ccc(-c2cnc(N3CCNCC3)nc2)cc1 [Example 60, 1-(5-phenyl-2-pyrimidinyl)piperazine]	16 mg/kg	–	ED50 [3]: 5 mg/kg
14 nM	O=C1c2cc(Cl)ccc2S(=O)(=O)N1CCCCN1CCN(c2ncccn2)CC1 [Example 10]	–	–	minimal effective dose [2]: 1 mg/kg
–	O=C1c2ccccc2S(=O)(=O)N1CCCCN1CCN(c2ncccn2)CC1 [Example 7, 2-(4-(4-(2-Pyrimidinyl)-1-piperazinyl)butyl)-1,2-benzisothiazol-3-(2H)one 1,1-dioxide]	–	5 mg/kg	minimal effective dose [2]: 0.5 mg/kg
–	NCCCCN1CCN(c2ncc(-c3ccccc3)cn2)CC1 [Example 49, 1-(4-aminobutyl)-5-(5-phenyl-2-phenyl-2-pyrimidinyl)piperazine]	3 mg/kg	–	–
80 nM	CN1C(=O)N(CCCCN2CCN(c3ncccn3)CC2)S(=O)(=O)c2ccccc21 [Example 37, 2-(4-(4-(2-Pyrimidinyl)-1-piperazinyl)butyl)-4-methyl-1,2,4-benzothiadiazin-3(4H)one 1,1-dioxide]	–	–	–
–	O=C1c2ccccc2C(=O)N1CC(O)CN1CCN(c2ncc(-c3ccc(Cl)cc3)cn2)CC1 (stereo not drawn) [Example 18, 2-(3-(4-(5-(4-chlorophenyl)-2-pyrimidinyl)-1-piperazinyl)-2-hydroxypropyl)isoindole-1,3(2H)dione]	–	9 mg/kg	ED50 [3]: 21 mg/kg; minimal effective dose [2]: 1 mg/kg
–	Fc1cccc(Cl)c1-c1cnc(N2CCNCC2)nc1 [Example 61, 1-(5-(2-Fluoro-6-chlorophenyl)-2-pyrimidinyl)piperazine]	5 mg/kg	–	–
–	NCCCCN1CCN(c2ncc(-c3c(F)cccc3Cl)cn2)CC1 [Example 50, 1-(4-Aminobutyl)-4-(5-(2-fluoro-6-chlorophenyl)-2-pyrimidinyl)piperazinehydrochloride]	3 mg/kg	32 mg/kg	–
–	O=C1c2ccccc2C(=O)N1CCCCN1CCN(c2ncc(-c3c(F)cccc3Cl)cn2)CC1 [Example 8, 2-(4-(4-(5-(2-Chloro-6-fluorophenyl)-2-pyrimidinyl)-1-piperazinyl)butyl)-isoindole-1,3(2H)dione]	1 mg/kg	12 mg/kg	ED50 (immobility): 33 mg/kg
60 nM	O=C1Nc2ccccc2S(=O)(=O)N1CCCCN1CCN(c2ncccn2)CC1 [Example 33, 2-(4-(4-(2-Pyrimidinyl)-1-piperazinyl)butyl)-1,2,4-benzothiadiazin-3(4H)one 1,1-dioxide]	–	–	–
9 nM	CN1C(=O)N(CCCN2CCN(c3ncccn3)CC2)S(=O)(=O)c2ccccc21 [Example 36, 2-(3-(4-(2-Pyrimidinyl)-1-piperazinyl)propyl)-4-methyl-1,2,4-benzothiadiazin-3(4H)one 1,1-dioxide]	–	–	–
–	O=C1c2ccccc2C(=O)N1CCCCN1CCN(c2ncc(-c3ccccc3)cn2)CC1 [Example 4, 2-(4-(4-(5-phenyl-2-pyrimidinyl)-1-piperazinyl)butyl)isoindole-1,3(2H)dion]	3 mg/kg	20 mg/kg	minimal effective dose [2]: 1 mg/kg; ED50 (immobility): 12 mg/kg
–	O=C1c2ccccc2C(=O)N1CCN1CCN(c2ncc(-c3ccc(Cl)cc3)cn2)CC1 [Example 15, 1-(2-(4-(5-(4-Chlorophenyl)-2-pyrimidinyl)-1-piperazinyl)ethyl)isoindole-1,3(2H)dione]	–	6 mg/kg	–
10 nM	O=C1Nc2ccccc2S(=O)(=O)N1CCCN1CCN(c2ncccn2)CC1 [Example 32, 2-(3-(4-(2-Pyrimidinyl)-1-piperazinyl)propyl)1,2,4-benzothiadiazin-3(4H)on 1,1-dioxide]	–	–	–
–	COc1ccc(-c2cnc(N3CCN(CCCCN4C(=O)c5ccccc5C4=O)CC3)nc2)cc1OC [Example 12, 2-(4-(4-(5-(3,4-Dimethoxyphenyl)- -2-pyrimidinyl)-1-piperazinyl)butyl)-isoindole-1,3(2H)dione]	–	16 mg/kg	ED50 (immobility): 50 mg/kg
–	c1ccc2c(-c3cnc(N4CCNCC4)nc3)c[nH]c2c1 [Example 64, 1-(5-(3-Indolyl)-2-pyrimidinyl)piperazine]	2 mg/kg	–	ED50 [3]: 18 mg/kg
–	O=C1c2ccccc2C(=O)N1CCCN1CCN(c2ncc(-c3ccccc3)cn2)CC1 [Example 6, 2-(3-(4-(5-Phenyl-2-pyrimidinyl)-1-piperazinyl)propyl)isoindole-1,3(2H)dione]	–	15 mg/kg	ED50 [3]: 40 mg/kg
10 nM	O=C1c2ccccc2C(=O)N1CCCCN1CCN(c2ncccn2)CC1 [Example 1, 2-(4-(4-(2-pyrimidinyl)-1-piperazinyl)butyl)isoindole-1,3(2H)dione]	18 mg/kg	–	–
–	CCOC(=O)N1CCN(c2ncc(-c3ccccc3)cn2)CC1 [Example 54, ethyl 4-(5-phenyl-2-pyrimidinyl)-1-piperazinecarboxylate]	0.4 mg/kg	10 mg/kg	minimal effective dose [2]: 5 mg/kg; ED50 (immobility): 20 mg/kg
–	COc1ccc(-c2cnc(N3CCN(CCCCN4C(=O)Cc5ccccc5C4=O)CC3)nc2)cc1OC [Example 20, 2-(4-(4-(5-(3,4-Dimethoxyphenyl)-2-pyrimidinyl)-1-piperazinyl)butyl)-isoquinoline-1,3(2H,4H)dione]	5 mg/kg	–	–
30 nM	O=C1Cc2ccccc2C(=O)N1CCCCN1CCN(c2ncccn2)CC1 [Example 19, 2-(4-(4-(2-pyrimidinyl)-1-piperazinyl)butyl)isoquinoline-1,3(2H,4H)dione]	–	–	–
